# “And” between values parts separate entries of the source, which are not always exact repeats. Identical values can stand only once.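 Exposure lasted 48 hours, with cells grown in 96-well plates and compounds tested at five concentrations. Abbreviation: GI50, concentration required for 50% inhibition of growth. The concentration for full growth arrest is given as TGI.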
# Legend:
# Experiment in all cases: NCI-60 cell line screen, 48 h
# HOP-92 NSCLC = system: HOP-92 NSCLC
# HCC-2998 colon = system: HCC-2998 colon
# LOX IMVI melanoma = system: LOX IMVI melanoma
# NCI-H522 lung = system: NCI-H522 lung
# A549 NSCLC = system: A549 NSCLC
# SW-620 colon = system: SW-620 colon
# KM12 colon = system: KM12 colon
# NCI-H226 lung = system: NCI-H226 lung
# HCT-15 colon = system: HCT-15 colon
# MOLT-4 leukemia = system: MOLT-4 leukemia
SMILES,TGI (HOP-92 NSCLC),TGI (HCC-2998 colon),TGI (LOX IMVI melanoma),TGI (NCI-H522 lung),TGI (A549 NSCLC),TGI (SW-620 colon),TGI (KM12 colon),TGI (NCI-H226 lung),TGI (HCT-15 colon),TGI (MOLT-4 leukemia),GI50 (HOP-92 NSCLC),GI50 (HCC-2998 colon),GI50 (LOX IMVI melanoma),GI50 (NCI-H522 lung),GI50 (A549 NSCLC),GI50 (SW-620 colon),GI50 (KM12 colon),GI50 (NCI-H226 lung),GI50 (HCT-15 colon),GI50 (MOLT-4 leukemia)
CNC(=O)CN(CC(N)=O)C(=O)NC,> 100 µM,> 100 µM,> 100 µM,> 100 µM,> 100 µM,> 100 µM,> 100 µM,> 100 µM,> 100 µM,> 100 µM,–,–,–,–,–,–,–,–,–,–
CC(=O)Nc1ccc(/C=C/C(=O)c2sc(C(N)=S)nc2C)cc1,> 100 µM,> 100 µM,> 100 µM,> 100 µM,> 100 µM,> 100 µM,> 100 µM,> 100 µM,> 100 µM,> 100 µM,–,–,–,–,–,–,–,–,–,–
NC(=O)Oc1cc(OC(N)=O)cc(N(CCCl)CCCl)c1,7.87 µM,61.9 µM,> 100 µM,6.12 µM,69 µM,> 100 µM,36.7 µM,77.7 µM,> 100 µM,> 100 µM,0.849 µM,16.9 µM,2.3 µM,2.08 µM,5.13 µM,7.59 µM,14.1 µM,14.9 µM,6.31 µM,2.18 µM
O=C1/C(=C/c2ccc(Cl)cc2)CN(C(=O)C(Cl)Cl)C/C1=C\c1ccc(Cl)cc1,1.01 µM,0.345 µM,0.121 µM,1.4 µM,1.05 µM,0.231 µM,0.273 µM,0.454 µM,0.793 µM,> 28.1 µM,0.249 µM,0.182 µM,0.0321 µM,0.31 µM,0.275 µM,0.04 µM,0.0912 µM,0.211 µM,0.0577 µM,0.273 µM
Cc1ccc(NC(=O)c2ccnc(N3CCCC3)c2)cc1-c1ccc(C(=O)NCC2CC2)cc1,> 25 µM,> 25 µM,> 25 µM,> 25 µM,> 25 µM,> 25 µM,> 25 µM,> 25 µM,> 25 µM,> 25 µM,8.2 µM,> 25 µM,> 25 µM,> 25 µM,> 25 µM,> 25 µM,> 25 µM,> 25 µM,> 25 µM,> 25 µM
Cc1ccc(S(=O)(=O)N/N=C(\C(=O)Nc2cccc([N+](=O)[O-])c2)c2nc3ccc([N+](=O)[O-])cc3[nH]c2=O)cc1,> 100 µM,69.9 µM,> 100 µM,> 100 µM,> 100 µM,> 100 µM,> 100 µM,> 100 µM,> 100 µM,> 100 µM,–,–,–,–,–,–,–,–,–,–
COc1cc(C(=O)n2nc(N3CCN(C)CC3)c3cc(N)ccc32)cc(OC)c1OC,> 100 µM,14.3 µM,17.1 µM,8.87 µM,> 100 µM,> 100 µM,27.2 µM,34.5 µM,> 100 µM,43.9 µM,6.4 µM,3.6 µM,4.23 µM,2.01 µM,6.89 µM,5.28 µM,3.51 µM,5.61 µM,3.45 µM,3.78 µM
CC/C(=C(\CC)c1ccc(OCCN(CC)CC)cc1)c1ccc(OCCN(CC)CC)cc1,4.72 µM,18.9 µM,5.5 µM,4.67 µM,15.5 µM,7.79 µM,12.6 µM,13.7 µM,11.2 µM,18.2 µM,0.879 µM,5.57 µM,1.19 µM,1.83 µM,3.81 µM,2.33 µM,2.01 µM,3.87 µM,1.74 µM,3.62 µM
Cn1cc(C2=C(c3c4n(c5ccccc35)CCC(CN)CC4)C(=O)NC2=O)c2ccccc21 (stereo not given),7.69 µM,8.46 µM,11.4 µM,8.11 µM,9.24 µM,7.9 µM,7.39 µM,16.2 µM,9.93 µM,13.3 µM,2.92 µM,4.43 µM,5.26 µM,4.08 µM,4.14 µM,3.87 µM,3.88 µM,5.01 µM,4.82 µM,5.27 µM
COc1cc(-c2nc3ccccc3s2)ccc1OCc1nc2n(n1)S(=O)(=O)c1ccccc1N2C,> 100 µM,> 100 µM,> 100 µM,> 100 µM,> 100 µM,> 100 µM,> 100 µM,> 100 µM,> 100 µM,> 100 µM,43.9 µM,> 100 µM,> 100 µM,96.8 µM,> 100 µM,> 100 µM,> 100 µM,> 100 µM,> 100 µM,> 100 µM
Nc1ccc(C(=O)NN2C(=O)C(Cl)C2c2ccccc2O)cc1 (stereo not given),> 100 µM,98.5 µM,> 100 µM,> 100 µM,> 100 µM,> 100 µM,> 100 µM,> 100 µM,> 100 µM,> 100 µM,–,–,–,–,–,–,–,–,–,–
O=C(O)CC1(C(=O)O)CCCCC1,> 100 µM,> 100 µM,> 100 µM,> 100 µM,> 100 µM,> 100 µM,> 100 µM,> 100 µM,> 100 µM,> 100 µM,–,–,–,–,–,–,–,–,–,–
COc1ccc(F)cc1C(=O)c1cnc(NC2CCN(S(C)(=O)=O)CC2)nc1N,9.59 µM,> 25 µM,> 25 µM,14.7 µM,> 23.7 µM,> 16.6 µM,> 25 µM,> 20.6 µM,> 20.5 µM,> 19 µM,1.35 µM,3.55 µM,2.09 µM,4.3 µM,3.14 µM,0.636 µM,2.4 µM,2.56 µM,2.86 µM,2.66 µM
CN(CCO)c1nc2c(c(=O)[nH]1)CNCC2,> 100 µM,> 100 µM,> 100 µM,> 100 µM,> 100 µM,> 100 µM,> 100 µM,> 100 µM,> 100 µM,> 100 µM,–,–,–,–,–,–,–,–,–,–
CO[C@H](C(=O)N[C@@H](CCCCNC(=O)OCc1ccccc1)C(=O)OC(C)(C)C)[C@@H]1Cc2cc3cc(OC4CC(OC5CC(O)C(O)C(C)O5)C(O)C(C)O4)c(C)c(O)c3c(O)c2C(=O)[C@H]1OC1CC(OC2CC(OC3CC(C)(O)C(O)C(C)O3)C(O)C(C)O2)C(O)C(C)O1 (stereo not given in full),1.97 µM,3.2 µM,2.4 µM,3.15 µM,5.28 µM,3.34 µM,2.05 µM,2.14 µM,> 10 µM,2.73 µM,0.443 µM,0.885 µM,0.434 µM,0.687 µM,0.821 µM,0.441 µM,0.603 µM,0.673 µM,2.55 µM,0.381 µM
Cc1ccc2[nH]c(=O)c(C(C#N)c3ccccc3)nc2c1 (stereo not given),93.8 µM,> 100 µM,> 100 µM,70.7 µM,> 100 µM,> 100 µM,> 100 µM,> 100 µM,> 100 µM,> 100 µM,–,–,–,–,–,–,–,–,–,–
CN(C)CC1CCn2c(c(C3=C(c4cn(C)c5ccccc45)C(=O)NC3=O)c3ccccc32)C1 (stereo not given),6.55 µM,8.93 µM,7.83 µM,7.95 µM,9.06 µM,8.32 µM,8.26 µM,9.38 µM,10.1 µM,13.9 µM,1.78 µM,4.65 µM,3.86 µM,4.07 µM,4.5 µM,4.16 µM,4.14 µM,4.01 µM,4.1 µM,4.74 µM
COc1ccccc1NC(=O)C1=C(C)NC(C)=C(C(=O)Nc2ccccc2OC)C1c1ccccc1OC,> 100 µM,> 100 µM,> 100 µM,> 100 µM,> 100 µM,> 100 µM,> 100 µM,> 100 µM,> 100 µM,> 100 µM,–,–,–,–,–,–,–,–,–,–
Cn1cnc2c(NCc3ccccc3)nc(NCCO)nc21,> 90.2 µM and 375 µM,356 µM,81.4 µM and > 395 µM,322 µM,> 458 µM,> 426 µM,344 µM,> 93.2 µM and 183 µM,> 500 µM,356 µM,138 µM,115 µM,48.4 µM,90.6 µM,105 µM,158 µM,62.1 µM,17.5 µM,129 µM,103 µM
O=C(Nc1ccc(Br)c(Cl)c1)c1cc(F)ccc1O,0.755 µM,> 22 µM,3.04 µM,2.93 µM,> 50 µM,9.67 µM,5.23 µM,2.69 µM,6.66 µM,2.81 µM,0.121 µM,1.63 µM,0.553 µM,0.238 µM,1.75 µM,1.2 µM,1.36 µM,0.651 µM,0.888 µM,0.943 µM
CCC[CH2][Sn]([CH2]CCC)([S]C1=NCCS1)[S]C1=NCCS1,0.529 µM,1.94 µM,0.555 µM,0.0562 µM,3.55 µM,0.441 µM,2.28 µM,2.12 µM,1.74 µM,0.732 µM,0.227 µM,0.654 µM,0.186 µM,0.0133 µM,1.85 µM,0.145 µM,1.02 µM,0.741 µM,0.338 µM,0.157 µM
COC(=O)C#Cc1ccc([N+](=O)[O-])cc1,4.11 µM,4.32 µM,2.64 µM,3.47 µM,7.44 µM,3.78 µM,3.9 µM,5.72 µM,1.6 µM,2.88 µM,–,–,–,–,–,–,–,–,–,–
